Experimental findings from patent US10646490B2, “Thieno- and pyrrolopyrimidine analogues and prodrugs thereof as anticancer agents and methods of use thereof” (UNIVERSITY OF MARYLAND, BALTIMORE COUNTY, priority 2015, dated 2020) are described below.

The subject of data set [1] is MIA Pa-Ca-2 pancreatic cancer cells. Description: Cancer cell line activity screening. Type of data set: cell-based.
The next data set has as its system MOLM14. In words: Cancer cell line activity screening. Format: cell-based.
The next data set deals with A549. Description: Cancer cell line activity screening. Type of data set: cell-based.
The test system of data set [2] is various cancer cell lines. In words: Cancer cell line activity screening, panel. The settings on record: Table 5; read-out: IC50 values as low as. Format: cell-based. The source says: (§1) In order to investigate the PK profile of these compounds, a series of halogenated pyrrolo[3,2-d]pyrimidine compounds was synthesized and first tested for activity in various cancer cell lines followed by a mouse model. […] This indicates a wide variance in activity and toxicity that necessitated the synthesis of a second series of compounds with N5 alkyl substitutions in an effort to slow the rate of metabolism, which was thought to be leading to the toxicity.

A short description of data set [3]: Maximum tolerated dose / toxicity in mice. The settings on record: for MTD: mouse, in vivo. Type of data set: in vivo.
Text: as §1

Another data set has as its system MDA-MB-231. In words: Cancer cell line activity screening. Format: cell-based, human.
Data set [4] is described as follows: Mouse pharmacokinetics, plasma half-life. Type of data set: in vivo. The settings on record: for t1/2: 10 mg/kg injection. The method, then: Further, mouse studies on 7 were carried out at The Cancer Center Pharmacology Core (CCPC, Colorado State University) by injection of 10 mg/kg of the compound, followed by euthanization at 15, 30, 60, 90, 120, 240, and 480 minutes. […] Mouse studies on 9 were performed in the same manner.

The nature of data set [5]: Stability in aqueous buffer. Format: physicochemical.
Data set [6] in a line: Stability in biological media. Format: in vitro ADME.

Read-outs that look alike come from different tables or passages of the source.

For `Clc1nc(Cl)c2[nH]cc(Br)c2n1` [Compound 6], the IC50 in [1] (Homo sapiens, MIA PaCa-2) was 14 ± 1 nM; in the data set with MOLM14 (Homo sapiens, MOLM-14), 23 ± 4 nM; in the data set on A549 (Homo sapiens, A549), 50 ± 20 nM; in data set [2], ≥ 14 nM; in the data set on MDA-MB-231 (Homo sapiens, MDA-MB-231), 400 ± 300 nM. In data set [3] (mice), this compound returned an MTD of 5 to 40 mg/kg. Further, the “toxicity higher than 7” value in data set [3] (vs 7) was determined as 2 fold.
Turning to `Clc1nc(Cl)c2c(n1)c(I)cn2COCc1ccccc1` [Compound 8, 5-((Benzyloxy)methyl)-2,4-dichloro-7-iodo-pyrrolo[3,2-d]pyrimidine], the IC50 in [1] (Homo sapiens, MIA PaCa-2) amounted to 7300 ± 800 nM; in the data set on MDA-MB-231 (Homo sapiens, MDA-MB-231), 6100 ± 400 nM.
Consider `Cc1ccc(S(=O)(=O)n2cc(I)c3nc(Cl)nc(Cl)c32)cc1` [Compound 9, 2,4-Dichloro-7-iodo-5-tosyl-pyrrolo[3,2-d]pyrimidine], for which half-maximal inhibition in [1] (Homo sapiens, MIA PaCa-2) (IC50) was put at 500 ± 20 nM. In addition, in data set [4], the t1/2 is reported as 32.7 min. Further, the “duration stable in aqueous buffer (for up to)” value in data set [5] was “up to 24 hours”. Moreover, the “time to undetectable in biological media” value in data set [6] is ≤ 1 hour. Moreover, in data set [3] (mice), the “maximum tolerated dose (MTD)” value was 40 mg/kg and the MTD is 5 to 40 mg/kg. This compound also yielded an IC50 with MDA-MB-231 (Homo sapiens, MDA-MB-231) of 790 ± 40 nM.
Consider `Clc1nc(Cl)c2[nH]ccc2n1` [Compound 19, 2,4-Dichloropyrrolo[3,2-d]pyrimidine], for which the IC50 amounted to 5300 ± 1000 nM in data set [1], 9500 ± 3100 nM with MOLM14, 14500 ± 3500 nM in the data set with A549 and 9700 ± 9700 nM with MDA-MB-231.
Take `Clc1nc(Cl)c2[nH]cc(I)c2n1` [Compound 20, 7-iodo-2,4-dichloro pyrrolo[3,2-d]pyrimidine]: the IC50 is 370 ± 50 nM in data set [1] (Homo sapiens, MIA PaCa-2); 550 ± 70 nM with MOLM14 (Homo sapiens, MOLM-14); 1000 ± 100 nM with A549 (Homo sapiens, A549); ≥ 14 nM in [2]; 1200 ± 400 nM with MDA-MB-231 (Homo sapiens, MDA-MB-231). The “time to little to no detection in mouse plasma” value in data set [4] is ≤ 70 min. This compound also displayed a t1/2 in data set [4] of 30.7 min. Also, the MTD in data set [3] (mice) lay in the range of 5 to 40 mg/kg.
